# Assays:
# [1] = tested on: mouse; details: Subchronic oral toxicity in rodents, b6c3f1, Gavage/Intubation, dose end: 13 week, group: systemic
# [2] = tested on: rat; details: Subchronic oral toxicity in rodents, fischer, Gavage/Intubation, dose end: 13 week, group: systemic
# [3] = tested on: rat; details: Subchronic oral toxicity in rodents, sprague dawley, Gavage/Intubation, dose end: 13 week, group: systemic
# [4] = tested on: rat; details: Prenatal developmental toxicity study, sprague dawley, Oral, Gavage/Intubation, dose end: 15 GD, group: maternal
# [5] = tested on: rabbit; details: Prenatal developmental toxicity study, new zealand white, Oral, Gavage/Intubation, dose end: 18 GD
# [6] = tested on: rat; details: Combined chronic toxicity/carcinogenicity; other; Oral; Feed; dose end: 2 year; group: systemic; systemic / clinical chemistry / peroxisomal beta-oxidation analysis / peroxisomal beta-oxidation analysis + systemic / organ weight / liver…
# [7] = tested on: rat; details: Combined chronic toxicity/carcinogenicity; sprague dawley; Oral; Feed; dose end: 104 week; group: systemic; systemic / clinical chemistry / alkaline phosphatase (alp/alk) / alkaline phosphatase (alp/alk) + systemic / clinical chemistry / aspartate …
# [8] = tested on: rat; details: Subchronic oral toxicity in rodents, Charles River CD, Feed, dose end: 90 day, group: systemic
# [9] = tested on: rat; details: Multigenerational reproductive toxicity study, sprague dawley, Oral, Gavage/Intubation, dose end: 2 generation
# [10] = tested on: dog; details: Chronic toxicity, beagle, Oral, Feed, dose end: 1 year, group: systemic
# [11] = tested on: rat; details: Multigenerational reproductive toxicity study, sprague dawley, Oral, Feed, dose end: 2 generation
# [12] = tested on: rat; details: Prenatal developmental toxicity study, sprague dawley, Oral, Gavage/Intubation, dose end: 15 GD
# [13] = tested on: mouse; details: Combined chronic toxicity/carcinogenicity, cd1, Oral, Feed, dose end: 24 month, group: systemic
# [14] = tested on: rabbit; details: Prenatal developmental toxicity study, new zealand white, Oral, Gavage/Intubation, dose end: 19 GD
# [15] = tested on: rat; details: Combined chronic toxicity/carcinogenicity; sprague dawley; Oral; Feed; dose end: 2 year; group: systemic; systemic / hematology / lymphocyte / lymphocyte + systemic / hematology / neutrophils / neutrophils + systemic / in life observation / body …
# [16] = tested on: dog; details: Chronic toxicity, beagle, Oral, Feed, dose end: 53 week, group: systemic
# [17] = tested on: mouse; details: Carcinogenicity; cd1; Oral; Feed; dose end: 18 month; group: systemic; systemic / pathology microscopic / adrenal gland / eosinophilic focus + systemic / pathology microscopic / liver / hypertrophy + systemic / …
# [18] = tested on: mouse; details: Subchronic oral toxicity in rodents, cd1, Feed, dose end: 3 month, group: systemic
# [19] = tested on: rat; details: Subchronic oral toxicity in rodents, sprague dawley, Feed, dose end: 3 month, group: systemic
# [20] = tested on: dog; details: Subchronic oral toxicity in nonrodent, beagle, Feed, dose end: 13 week, group: systemic
# [21] = tested on: rat; details: Combined chronic toxicity/carcinogenicity, sprague dawley, Oral, Feed, dose end: 2 year, group: systemic
# [22] = systemic / in life observation / clinical signs / hyperactivity + systemic / in life observation / mortality / mortality + systemic / …
# [23] = systemic / clinical chemistry / albumin / albumin + systemic / clinical chemistry / protein / protein + systemic / hematology / mean …
# [24] = systemic / in life observation / clinical signs / lacrimation + systemic / hematology / mean corpuscular (cell) volume (mcv) / mean …
# [25] = systemic / organ weight / liver / absolute + systemic / organ weight / liver / relative to body weight + systemic / in life observation / …
# [26] = systemic / organ weight / liver / relative to body weight
# [27] = systemic / in life observation / body weight / body weight + systemic / in life observation / clinical signs / alopecia + systemic / in life…
# [28] = group: developmental, developmental / developmental malformation / bone / full supernumerary
# [29] = group: maternal, systemic / in life observation / body weight / body weight gain
# [30] = systemic / organ weight / liver / absolute + systemic / organ weight / liver / relative to body weight + systemic / pathology microscopic / …
# [31] = group: offspring, developmental / offspring survival late / lactation index / lactation index + developmental / offspring survival late / [other] / [other] + …
# [32] = group: parental, systemic / in life observation / body weight / body weight + systemic / in life observation / body weight / body weight gain + systemic / in…
# [33] = group: parental, systemic / organ weight / kidney / relative to body weight + systemic / organ weight / liver / absolute + systemic / organ weight / liver / …
# [34] = systemic / pathology microscopic / liver / hypertrophy
# [35] = group: offspring, systemic / in life observation / body weight / offspring (pup) weight gain
# [36] = group: offspring, systemic / in life observation / body weight / offspring (pup) weight gain + developmental / offspring survival late / viability index / …
# [37] = group: parental, systemic / organ weight / liver / nos + systemic / organ weight / liver / relative to body weight + systemic / in life observation / food …
# [38] = group: parental, systemic / organ weight / liver / nos + systemic / organ weight / liver / relative to body weight + systemic / pathology microscopic / liver…
# [39] = group: reproductive, reproductive / offspring survival early / birth index / live birth index
# [40] = group: developmental, developmental / developmental malformation / bone / cervical + developmental / developmental malformation / bone / short supernumerary
# [41] = group: maternal, systemic / in life observation / clinical signs / fur (altered appearance) + systemic / in life observation / clinical signs / salivation
# [42] = group: maternal, systemic / in life observation / clinical signs / fur (altered appearance) + systemic / in life observation / clinical signs / salivation + …
# [43] = systemic / clinical chemistry / hepatic mixed function oxidase (mfo) assay / hepatic mixed function oxidase (mfo) assay
# [44] = systemic / clinical chemistry / hepatic mixed function oxidase (mfo) assay / hepatic mixed function oxidase (mfo) assay + systemic / …
# [45] = group: developmental, developmental / offspring survival late / viability index / viability index
# [46] = group: maternal, reproductive / reproductive performance / resorptions / resorptions + systemic / in life observation / body weight / body weight + systemic…
# [47] = systemic / pathology microscopic / liver / hypertrophy + systemic / clinical chemistry / alanine aminotransferase (alt/sgpt) / alanine …
# [48] = systemic / pathology microscopic / adrenal gland / hypertrophy + systemic / pathology microscopic / liver / hypertrophy + systemic / …
# [49] = systemic / pathology microscopic / liver / hypertrophy + systemic / clinical chemistry / alkaline phosphatase (alp/alk) / alkaline …
# [50] = systemic / organ weight / testes / nos + systemic / pathology microscopic / testes / atrophy
# [51] = systemic / organ weight / testes / nos + systemic / pathology microscopic / testes / atrophy + systemic / in life observation / body weight…
smiles,measurement,setting,value
C[N+](C)(C)Cc1ccccc1.[Cl-] [Benzyltrimethylammonium chloride],LEL,[1]; systemic / clinical chemistry / protein / protein,25 mg/kg/day
same,NEL,[1]; systemic / clinical chemistry / protein / protein + systemic / in life observation / mortality / mortality + systemic / organ weight / heart…,12.5 mg/kg/day
same,LOAEL,[1]; [22],> 100 mg/kg/day
same,NOAEL,[1]; [22],≥ 100 mg/kg/day
same,LOAEL,[2]; [23],> 100 mg/kg/day
same,NOAEL,[2]; [23],≥ 100 mg/kg/day
same,LEL,[2]; [24],12.5 mg/kg/day
same,NEL,[2]; [24],< 12.5 mg/kg/day
CCCCCCCCOC(C)=O [Octyl acetate],NEL,[3]; systemic / in life observation / body weight / body weight + systemic / in life observation / food consumption / food consumption + systemic…,100 mg/kg/day
same,LOAEL,[3]; [25],> 1000 mg/kg/day
same,NOAEL,[3]; [25],≥ 1000 mg/kg/day
same,LEL,[3]; [26],500 mg/kg/day
same,LOAEL,[4]; [27],> 1000 mg/kg/day
same,NEL,[4]; [27],100 mg/kg/day
same,NOAEL,[4]; [27],≥ 1000 mg/kg/day
same,LEL,[4]; systemic / in life observation / body weight / body weight + systemic / in life observation / food consumption / food consumption,500 mg/kg/day
"O=C([O-])C(F)(F)C(F)(F)C(F)(F)C(F)(F)C(F)(F)C(F)(F)C(F)(F)F.[NH4+] [PFOA, ammonium salt]",LEL,[5]; [28],50 mg/kg/day
same,LOAEL,[5]; [28],> 50 mg/kg/day
same,NEL,[5]; [28],5 mg/kg/day
same,NOAEL,[5]; [28],≥ 50 mg/kg/day
same,LEL,[5]; [29],50 mg/kg/day
same,LOAEL,[5]; [29],50 mg/kg/day
same,NEL,[5]; [29],5 mg/kg/day
same,NOAEL,[5]; [29],5 mg/kg/day
same,LEL,[6],15 mg/kg/day
same,LOAEL,[6],> 15 mg/kg/day
same,NEL,[6],< 15 mg/kg/day
same,NOAEL,[6],≥ 15 mg/kg/day
same,LEL,[7],1.3 mg/kg/day
same,LOAEL,[7],> 14.2 mg/kg/day
same,NEL,[7],< 1.3 mg/kg/day
same,NOAEL,[7],≥ 14.2 mg/kg/day
same,NEL,[8]; systemic / clinical chemistry / alkaline phosphatase (alp/alk) / alkaline phosphatase (alp/alk) + systemic / clinical chemistry / urea …,0.5 mg/kg/day
same,LEL,[8]; systemic / organ weight / kidney / absolute,1.5 mg/kg/day
same,LOAEL,[8]; [30],> 50 mg/kg/day
same,NOAEL,[8]; [30],≥ 50 mg/kg/day
same,LEL,[9]; [31],30 mg/kg/day
same,LOAEL,[9]; [31],> 30 mg/kg/day
same,NEL,[9]; [31],10 mg/kg/day
same,NOAEL,[9]; [31],≥ 30 mg/kg/day
same,LOAEL,[9]; [32],> 30 mg/kg/day
same,NOAEL,[9]; [32],≥ 30 mg/kg/day
same,LEL,[9]; [33],1 mg/kg/day
same,NEL,[9]; [33],< 1 mg/kg/day
CCCCC(C#N)(Cn1cncn1)c1ccc(Cl)cc1 (stereo not drawn) [Myclobutanil],LEL,[10]; [26],0.4 mg/kg/day
same,NEL,[10]; [26],< 0.4 mg/kg/day
same,LOAEL,[10]; [34],14.3 mg/kg/day
same,NOAEL,[10]; systemic / pathology microscopic / liver / hypertrophy + systemic / organ weight / liver / relative to body weight + systemic / organ weight…,3.09 mg/kg/day
same,NEL,[11]; [35],10 mg/kg/day
same,NOAEL,[11]; [35],10 mg/kg/day
same,LEL,[11]; [36],50 mg/kg/day
same,LOAEL,[11]; [36],50 mg/kg/day
same,NEL,[11]; [37],2.5 mg/kg/day
same,NOAEL,[11]; [37],2.5 mg/kg/day
same,LEL,[11]; [38],10 mg/kg/day
same,LOAEL,[11]; [38],10 mg/kg/day
same,LEL,[11]; [39],10 mg/kg/day
same,LOAEL,[11]; [39],50 mg/kg/day
same,NEL,[11]; [39],2.5 mg/kg/day
same,NOAEL,[11]; [39],10 mg/kg/day
same,LEL,[12]; [40],313 mg/kg/day
same,LOAEL,[12]; [40],313 mg/kg/day
same,NEL,[12]; [40],93.8 mg/kg/day
same,NOAEL,[12]; [40],93.8 mg/kg/day
same,LEL,[12]; [41],313 mg/kg/day
same,LOAEL,[12]; [41],313 mg/kg/day
same,NEL,[12]; [42],93.8 mg/kg/day
same,NOAEL,[12]; [42],93.8 mg/kg/day
same,LEL,[13]; [43],16.5 mg/kg/day
same,LOAEL,[13]; [43],16.5 mg/kg/day
same,NEL,[13]; [44],3.2 mg/kg/day
same,NOAEL,[13]; [44],3.2 mg/kg/day
same,LEL,[14]; [45],200 mg/kg/day
same,LOAEL,[14]; [45],200 mg/kg/day
same,NEL,[14]; [45],60 mg/kg/day
same,NOAEL,[14]; [45],60 mg/kg/day
same,LEL,[14]; [46],200 mg/kg/day
same,LOAEL,[14]; [46],200 mg/kg/day
same,NEL,[14]; [46],60 mg/kg/day
same,NOAEL,[14]; [46],60 mg/kg/day
same,LEL,[15],125 mg/kg/day
same,LOAEL,[15],> 125 mg/kg/day
same,NEL,[15],< 125 mg/kg/day
same,NOAEL,[15],≥ 125 mg/kg/day
same,LOAEL,[16]; [34],14.3 mg/kg/day
same,NEL,[16]; [47],3.09 mg/kg/day
same,NOAEL,[16]; [47],3.09 mg/kg/day
same,LEL,[16]; systemic / pathology microscopic / liver / hypertrophy + systemic / hematology / mean corpuscular hemoglobin (mch) / mean corpuscular …,14.3 mg/kg/day
same,LEL,[17],394 mg/kg/day
same,LOAEL,[17],394 mg/kg/day
same,NEL,[17],< 394 mg/kg/day
same,NOAEL,[17],< 394 mg/kg/day
same,LOAEL,[18]; [48],150 mg/kg/day
same,NEL,[18]; [48],45 mg/kg/day
same,NOAEL,[18]; [48],45 mg/kg/day
same,LEL,[18]; systemic / pathology microscopic / adrenal gland / hypertrophy + systemic / pathology microscopic / liver / necrosis + systemic / pathology …,150 mg/kg/day
same,LEL,[19]; [43],15 mg/kg/day
same,NEL,[19]; [43],< 15 mg/kg/day
same,LOAEL,[19]; systemic / organ weight / kidney / nos + systemic / organ weight / liver / nos,150 mg/kg/day
same,NOAEL,[19]; systemic / organ weight / kidney / nos + systemic / organ weight / liver / nos + systemic / clinical chemistry / albumin-globulin ratio / …,50 mg/kg/day
same,LOAEL,[20]; [34],5 mg/kg/day
same,NEL,[20]; [49],0.25 mg/kg/day
same,NOAEL,[20]; [49],0.25 mg/kg/day
same,LEL,[20]; systemic / pathology microscopic / liver / hypertrophy + systemic / pathology microscopic / kidney / inflammation,5 mg/kg/day
same,LEL,[21]; [50],9.84 mg/kg/day
same,LOAEL,[21]; [50],9.84 mg/kg/day
same,NEL,[21]; [51],2.49 mg/kg/day
same,NOAEL,[21]; [51],2.49 mg/kg/day
